Assay: Pharmacokinetics of aprepitant emulsion vs fosaprepitant solution, intravenous
Assay type: in vivo, male Sprague-Dawley rats
Conditions: rat, equivalent to 14 mg/kg aprepitant
Method: The pharmacokinetics of an aprepitant emulsion prepared according to Example 1 was determined. Two groups of six male Sprague-Dawley rats each were injected intravenously with, respectively, fosaprepitant in solution or aprepitant emulsion prepared according to Example 1. All drugs were administered at an effective concentration equivalent to 14 mg/kg aprepitant. Blood from all rats was collected at the appropriate time intervals and processed to plasma by centrifugation. Plasma samples were analyzed by LC-MS/MS for aprepitant and fosaprepitant, as appropriate. A plasma concentration versus time curve of aprepitant for the emulsion described in Example 1 and for fosaprepitant is presented in FIG. 2 (fosaprepitant in solution, ●; aprepitant emulsion, ▴). The curves indicate the initial aprepitant level reached immediately after injection of the aprepitant emulsion was almost 3 times higher than the initial aprepitant level reached immediately after injection of the fosaprepitant solution.

C[C@@H](O[C@H]1OCCN(Cc2nc(O)n(P(=O)(O)O)n2)[C@H]1c1ccc(F)cc1)c1cc(C(F)(F)F)cc(C(F)(F)F)c1 [fosaprepitant]
Plasma levels of aprepitant by the 3-hour time point, emulsion vs fosaprepitant solution: essentially the same
